# Reference: patent US20190175534A1, “PHARMACEUTICAL COMPOSITIONS COMPRISING DGLA AND USE OF SAME” (DS Biopharma Limited, priority 2016, published 2019)
# Legend:
# [1] = Phase 1 multiple-dose skin blister fluid concentrations of free and total DGLA; assay type: in vivo, human
# Description: The PK of DGLA in human skin following multiple doses of DS107G capsule given once daily for 28 days to healthy subjects.
# [2] = tested on: spontaneous hypertensive rats; experiment: Arterial pressure in spontaneous hypertensive rats after seven days of gavage, with intravenous phenylephrine challenge; assay type: in vivo, rat; settings: DGLA 50 or 500 mg/kg alone; effect eliminated by aspirin
# Method: An in vivo investigation of anti-hypertension efficacy following co-administration of DGLA and aspirin in spontaneous hypertensive rats was conducted. This experiment investigated the efficacy of DGLA when co-administered chronically with aspirin to reduce the hypertensive response induced acutely by phenylephrine in spontaneous hypertensive rats. Spontaneously hypertensive adult male rats (250-300 g), bred by Charles River Laboratories, were used for this assay. […] The animals were pair-housed by group (low dose+aspirin, high dose+aspirin or aspirin alone) for the duration of the oral gavage prior to surgery.
# The test article was formulated using olive oil as the vehicle. This stock solution was then administered by oral gavage once per day for seven consecutive days. A low and a high dose (50 mg/kg and 500 mg/kg) were tested.
# A 5 mg/ml stock solution of aspirin was prepared by dissolving the appropriate amount of aspirin in 100% DMSO which was then diluted in water. The concentration of DMSO was less than 1%. The appropriate volume was administered by oral gavage to each animal once per day for seven consecutive days. The stock solution was stored at room temperature and was considered stable for the duration of the gavage.
# The appropriate volume was administered to each animal by an intravenous injection at the end of the experiment on the surgery day. The stock solution was stored at 4° C. and was considered stable for the duration of the experiment.
# Male spontaneous hypertensive rats weighing approximately 300 g arrived at the facility at least two days before beginning the oral gavage. Animals were assigned to one of three groups (low dose+aspirin, high dose+aspirin, and aspirin), and were pair-housed during the acclimation period. […]
# Rats were anesthetized with a 2.5-3.0% isoflurane-O2 mixture in an induction box. […] Blood pressure, systemic arterial pressure (SAP), and heart rate were monitored continuously for a total of half an hour. Hypertension was detected as an increase in diastolic, systolic or mean blood pressure. […]
# [3] = parameters: species or system human; settings: in vivo
# Method: A single-center, double-blind, randomized, placebo-controlled, two part Phase one study was performed in healthy male and female subjects aged 18 to 45 years inclusive. The primary objective of this study was to assess the safety and plasma pharmacokinetics (PK) of orally administered single doses and orally administered multiple doses of DS107G capsules (once daily for 28 days) in healthy subjects.
# Subjects were randomly assigned in a 3:1 ratio of DG107G to placebo by block randomization. Single dose part one of the study comprised three cohorts of eight subjects each, with the addition of Cohort four based on evaluation of the safety data of Cohort three by the Safety Monitoring Committee (SMC). A single oral dose of DS107G or matching placebo was administered to fasted subjects in Cohorts one to three (500, 1000, and 2000 mg, respectively) in parallel; subjects in Cohort four were administered a dose of 4000 mg following completion of Cohort three. Subjects in Cohort two received 1000 mg or matching placebo in the fed state at ≥14 days after the first dose.
# Safety assessments were monitored throughout the study.
# In Part one of the study, subjects in Cohorts one to three were administered a single dose of study drug (either 500-, 1000-, or 2000-mg as 500-mg DS107G capsules or matching placebo capsules) in parallel on study Day 1 after at least an 8-hour fast, according to Table 20. Cohort 4 was initiated following the review of safety data from Cohort 3 by the SMC.
# [4] = tested on: patients with moderate to severe atopic dermatitis; experiment: Phase II study of oral DS107G: eosinophil concentrations and responders by ethnicity; assay type: in vivo, human; settings: for Patients classified as Responders: IGA 0 or 1 at Week 8 with 2-point decrease
# Method: The primary endpoint can be translated as a responder analysis where a subject is classified as Responder if he/she achieves an IGA score of 0 (clear) or 1 (almost clear) at Week 8, considering a 2-point decrease from baseline. The comparison between groups for the primary endpoint was done using a Cochran-Mantel-Haenszel test, with site included as a stratification factor. A supportive analysis was performed using a Fisher's exact test. The primary efficacy analysis was done using observed values and a supportive analysis was conducted using the last observation carried forward (LOCF) approach. The analyses was done using the ITT population and served as the primary analysis, while the analysis of the primary endpoint using the PP population was used as a sensitivity analysis.
# A surprising discovery was observed when the data was further interrogated.
# Eosinophils are a type of white blood cell that play an important role in the body's response to allergic reactions, asthma, and infection with parasites. Eosinophils usually account for less than 7% of the circulating white blood cells (100 to 500 eosinophils per microliter of blood). These cells have a role in the protective immunity against certain parasites but also contribute to the inflammation that occurs in allergic disorders.
# FIG. 30A-B. In particular, 56% of DS107-treated African America patients were classified as Responders, versus only 7% of Caucasian patients. FIG. 31A-B. As discussed in detail above, a subject is classified as a Responder if he/she achieves an IGA score of 0 (clear) or 1 (almost clear) at Week 8, considering a 2-point decrease from baseline. FIG. 32 depicts the same data for eosinophil concentrations in all Responders in the total population (FIG. 32A) and for DS107 treated patients (FIG. 32B) and placebo treated patients (FIG. 32C). […] FIG. 33A-C. […] FIGS. 34A-C and FIGS. 35A-C.
# [5] = Phase 1 multiple-dose (28 days) plasma pharmacokinetics of free and total DGLA, incl. steady state; assay type: in vivo, human; settings: for Peak Trough Fluctuation (PTF), free DGLA, mean: steady state Day 28 (0-24 hours); for Peak Trough Fluctuation (PTF), mean (Table 29, total DGLA): steady-state Day 28 (0-24 hours)
# Method: Multiple dose part two of the study comprised two cohorts (Cohorts five and six) of eight subjects each, who were administered multiple doses of study drug in the fasted state for 28 days. Subjects in Cohorts five and six received DS107G at 2000 or 4000 mg, respectively, or matching placebo once daily for 28 days. Cohort six was started after Cohort five's safety data were evaluated by the SMC. No interim analysis was planned. […]
# In Part two of the study (Cohorts five and six), subjects were administered study drug (500-mg DS107G capsules or matching placebo capsules) once daily in the fasted state for 28 days. Subjects in Cohort five received study drug first and, if they tolerated the 2000-mg daily dose for the first 14 days, subjects in Cohort six were started on the 4000-mg daily dose for 28 days.
# PK parameter was computed after correcting the dosed DGLA concentrations with baseline DGLA concentrations.
# [6] = first value printed for the two dose cohorts (2000 mg assumed)
# [7] = second value printed for the two dose cohorts (4000 mg assumed)
compound,measurement,setting,value
"CCCCC/C=C\C/C=C\C/C=C\CCCCCCC(=O)O [DGLA, Dihomo gamma linolenic acid]","Mean total DGLA concentration in skin blister fluid, Day 28 over Day 1",[1]; 2000 mg daily,about 2.5 fold
same,"Mean total DGLA concentration in skin blister fluid, Day 28 over Day 1",[1]; 4000 mg daily,~3 fold
same,Increase of mean total DGLA concentrations in skin blister fluid with a doubling in dose,"[1]; Days 1, 8, 14 and 28",about 1.4 fold
same,Mean free DGLA concentrations in skin blister fluid with a doubling in dose,"[1]; Days 1, 8, 14 and 28, 2000 vs 4000 mg daily",approximately doubled
same,"Mean free DGLA concentration in skin blister fluid, Day 28 over Day 1",[1]; both 2000 and 4000 mg daily,about 3 fold
same,Mean concentrations of free DGLA in plasma versus skin blister fluid,"[1]; same dose, Day 8 and Day 14 (but not Day 28)",somewhat similar
same,Mean concentrations of total DGLA in plasma versus skin blister fluid,"[1]; same dose, after Day 1",much higher in plasma than in skin blister fluid
same,Effect on arterial pressure in spontaneously hypertensive rats,[2],successfully decreases the arterial pressure
same,"Linearity of elimination half-life or clearance, free or total DGLA",[3]; human,no evidence of nonlinear pharmacokinetics
same,Mean baseline-corrected Cmax and AUC0-24 for free and total DGLA versus dose,[3],increased in a linear manner
same,Patients classified as Responders,[4]; African America patients,56%
same,Patients classified as Responders,[4]; Caucasian patients,7%
same,Response rate in subjects having low baseline eosinophil counts,[4]; in vivo,higher response rate
same,"Mean accumulation ratio (AR) for AUC, free DGLA",[5]; 2000 mg daily,~3.3
same,"Mean accumulation ratio (AR) for Cmax, free DGLA",[5]; 2000 mg daily,~2.8
same,"Mean accumulation ratio (AR) for AUC, free DGLA",[5]; 4000 mg daily,~1.6
same,"Mean accumulation ratio (AR) for Cmax, free DGLA",[5]; 4000 mg daily,~1.4
same,Time at which plasma concentrations reach steady-state (free and total DGLA),[5]; 2000 and 4000 mg daily,~14 days
same,"Mean baseline-corrected free DGLA AUC0-24, 4000 mg over 2000 mg dose",[5]; Day 1,~2.5 fold
same,"Mean baseline-corrected free DGLA Cmax, 4000 mg over 2000 mg dose",[5]; Day 1,~3 fold
same,"Mean baseline-corrected total DGLA AUC0-24, 4000 mg over 2000 mg dose",[5]; Day 1,~1.5 fold
same,"Mean baseline-corrected total DGLA Cmax, 4000 mg over 2000 mg dose",[5]; Day 1,~1.5 fold
same,"Mean baseline-corrected free DGLA AUC0-24, 4000 mg over 2000 mg dose",[5]; Day 28,~1.7 fold
same,"Mean baseline-corrected free DGLA Cmax, 4000 mg over 2000 mg dose",[5]; Day 28,~1.4 fold
same,"Mean baseline-corrected total DGLA AUC0-24, 4000 mg over 2000 mg dose",[5]; Day 28,~1.4 fold
same,"Mean baseline-corrected total DGLA Cmax, 4000 mg over 2000 mg dose",[5]; Day 28,~1.2 fold
same,Time of peak mean concentration of free DGLA after dosing,"[5]; Days 1 and 28, 2000 and 4000 mg daily",about 4 hours
same,"Increase of average concentration at steady state, free DGLA, dose doubled from 2000 to 4000 mg daily",[5]; in vivo,1.6 fold
same,"Increase of average concentration at steady state, total DGLA, dose doubled from 2000 to 4000 mg daily",[5]; in vivo,1.2 fold
same,"Peak Trough Fluctuation (PTF), free DGLA, mean",[5]; [6],~430%
same,"Peak Trough Fluctuation (PTF), free DGLA, mean",[5]; [7],~490%
same,"Peak Trough Fluctuation (PTF), mean (Table 29, total DGLA)",[5]; [6],62.5%
same,"Peak Trough Fluctuation (PTF), mean (Table 29, total DGLA)",[5]; [7],44.9%
